Data published in US11414489B2, “Combination therapy with a hyaluronan-degrading enzyme and an immune checkpoint inhibitor” (HALOZYME, INC., priority 2014, dated 2022).

Assays:
[1] = tested on: parental MH194+PSC4 syngeneic tumors; assay: Tumor growth in parental MH194+PSC4 syngeneic tumor mouse model (tumor volume, TGI); assay type: in vivo, C57BL/6 mice; conditions: for Tumor volume, Day 0: Day 0 (baseline); for Tumor volume, Day 0 / Tumor volume, Day 3 / Tumor volume, Day 7 / Tumor volume, Day 10 / Tumor volume, Day 14 / Tumor volume, Day 17 / Tumor volume, Day 21: mean ± SEM; for TGI (tumor growth inhibition): last day vs vehicle
Description: MH194 mouse pancreatic carcinoma cells (derived from the KrasLSL.G12D/+p53R172H/+PdxCretg/+ genetically engineered mouse model) were engineered to constitutively express human hyaluronan synthase 3 (HAS3) as in Example 1A. Stably transduced cells, designated MH194/HAS3 cells, were selected by hygromycin treatment. MH194/HAS3 and parental MH194 cells were maintained in tissue culture as an adherent monolayer in DMEM medium supplemented with 2 mM L-glutamine and 10% fetal bovine serum at 37° C. and 5% CO2.
Pancreas from C57BL/6 mice were minced with razor blades and placed in 2 mL of a digestion buffer containing 0.05% collagenase P, 0.1% DNAse, and 0.02% Pronase in Gey's balanced salt solution (GBSS). Following two […] digestion incubations at 37° C. with thorough mixing after each incubation, the resulting cell suspension was filtered through a 100 μm nylon mesh, washed twice in GBSS with 0.3% bovine serum albumin (BSA), and resuspended in 10 mL GBSS/BSA. Eight mL of Histodenz (Sigma, Cat. No. D2158) was added to the cell suspension, and the entire volume was pipetted under 6 mL GBSS/BSA in order to generate a discontinuous density gradient. Following centrifugation for 20 min at 1,400 g with the brake set at zero, the desired cells were harvested from the interface between the two density volumes and washed once with PBS and once with DMEM medium supplemented with 2 mM L-glutamine, 10% fetal bovine serum, and 1% amphotericin-B (complete DMEM). Cells were immortalized using Lenti-SV40 (Capital Biosciences, Cat. No. CIP-0011) using manufacturer's protocol. The resulting cell line, designated PSC4, were maintained in tissue culture as an adherent monolayer in complete DMEM at 37° C. and 5% CO2.
MH194/HAS3 cells as described in part A above were trypsin-harvested at 80-90% confluency, washed twice with sterile Hanks Balanced Salt Solution (HBSS), and diluted with HBSS to a concentration of 4×10^6 cells/mL. Male C57BL/6 mice were obtained at 4-6 weeks from Taconic Farms and housed 4/cage. For tumor inoculations, mice were injected with 50 μL of cell suspension containing 2×10^5 MH194/HAS3 cells or parental MH194 cells along with 5×10^5 PSC4 (7×10^5 cells total) intramuscularly, adjacent to the right tibial periosteum.
Tumor volumes were measured by ultrasound as in Example 1A2. Approximately 15-30 frames out of 150-200 frames were analyzed and a tumor volume calculated and expressed in mm^3. When using the HA quantitation procedure described in Example 1A3, tumors grown from parental MH194+PSC4 cells contained 263±16 ng HA/mg tissue, whereas tumors grown from MH194/HAS3+PSC4 cells contained 1783±99 ng HA/mg tissue.
Mice containing parental MH194+PSC4 syngeneic tumors generated as described in Example 1C, with a mean tumor volume of 131±26 mm^3, were randomized into treatment groups, each containing 6 mice, such that the mean tumor volume of each group were substantially the same. Dexamethasone or saline (0.9% sodium chloride for injection) were administered intraperitoneally (IP) on days 0, 3, 7, 10, 14, and 17, and anti-PD-1 (BioXCell Inc, clone RMP1-14, Cat. No. BE0146) or saline were administered intraperitoneally (IP) on days 1, 4, 8, 11, 15, and 18, all at the dose levels indicated in Table 27. Tumor volumes were measured on days 0, 3, 7, 10, 14, 17, and 21. The middle dexamethasone dose level (3 mg/kg) was selected to approximate the human dose equivalent for clinical trials in which PEGPH20 is administered with dexamethasone to alleviate musculoskeletal discomfort.

[2] = glucocorticoid administration; route (IV or PO); cited from earlier work
[3] = Dex 1 mg/kg IP 24 h prior to saline or α-PD-1 4 mg/kg IP
[4] = Dex 3 mg/kg IP 24 h prior to saline or α-PD-1 4 mg/kg IP
[5] = Dex 5 mg/kg IP 24 h prior to saline or α-PD-1 4 mg/kg IP

Compound: C[C@@H]1C[C@H]2[C@@H]3CCC4=CC(=O)C=C[C@]4(C)[C@@]3(F)[C@@H](O)C[C@]2(C)[C@@]1(O)C(=O)CO [Dex]
- Tumor volume, Day 0 [1, 3]: 133 ± 8 mm^3
- Tumor volume, Day 0 [1, 4]: 133 ± 9 mm^3
- Tumor volume, Day 0 [1, 5]: 125 ± 10 mm^3
- Tumor volume, Day 3 [1, 3]: 240 ± 19 mm^3
- Tumor volume, Day 3 [1, 4]: 253 ± 17 mm^3
- Tumor volume, Day 3 [1, 5]: 251 ± 22 mm^3
- Tumor volume, Day 7 [1, 3]: 374 ± 39 mm^3
- Tumor volume, Day 7 [1, 4]: 436 ± 23 mm^3
- Tumor volume, Day 7 [1, 5]: 390 ± 46 mm^3
- Tumor volume, Day 10 [1, 3]: 581 ± 50 mm^3
- Tumor volume, Day 10 [1, 4]: 553 ± 63 mm^3
- Tumor volume, Day 10 [1, 5]: 462 ± 46 mm^3
- Tumor volume, Day 14 [1, 3]: 904 ± 81 mm^3
- Tumor volume, Day 14 [1, 4]: 759 ± 81 mm^3
- Tumor volume, Day 14 [1, 5]: 729 ± 77 mm^3
- Tumor volume, Day 17 [1, 3]: 1354 ± 147 mm^3
- Tumor volume, Day 17 [1, 4]: 1346 ± 109 mm^3
- Tumor volume, Day 17 [1, 5]: 1202 ± 118 mm^3
- Tumor volume, Day 21 [1, 3]: 1899 ± 155 mm^3
- Tumor volume, Day 21 [1, 4]: 1867 ± 130 mm^3
- Tumor volume, Day 21 [1, 5]: 1630 ± 126 mm^3
- TGI (tumor growth inhibition) [1, 3]: 19%
- TGI (tumor growth inhibition) [1, 4]: 21%
- TGI (tumor growth inhibition) [1, 5]: 31%

Compound: C[C@]12CCC(=O)C=C1CC[C@@H]1[C@@H]2[C@@H](O)C[C@@]2(C)[C@H]1CC[C@]2(O)C(=O)CO [Hydrocortisone]
- Equivalent Potency [2]: 20 mg

Compound: C[C@H]1C[C@@H]2[C@H]([C@@H](O)C[C@@]3(C)[C@H]2CC[C@]3(O)C(=O)COC(=O)CCC(=O)O)[C@@]2(C)C=CC(=O)C=C12 [Methylprednisolone sodium succinate]
- Equivalent Potency [2]: 4 mg

Compound: C[C@]12C=CC(=O)C=C1CC[C@@H]1[C@@H]2[C@@H](O)C[C@@]2(C)[C@H]1CC[C@]2(O)C(=O)CO [Prednisolone]
- Equivalent Potency [2]: 5 mg
